According to PubChem BioAssay (NCI):
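Exposure lasted 48 hours, with cells grown in 96-well plates and compounds tested at five concentrations. TGI: concentration producing complete growth inhibition.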

Key:
Assay in all cases: NCI anticancer screen, dose series, 48 h
CCRF-CEM leukemia = test system: CCRF-CEM leukemia
SNB-75 CNS = test system: SNB-75 CNS
XF 498 CNS = test system: XF 498 CNS
NCI-H23 lung = test system: NCI-H23 lung
SNB-19 CNS = test system: SNB-19 CNS
SF-295 CNS = test system: SF-295 CNS
A549 NSCLC = test system: A549 NSCLC
RPMI-8226 leukemia = test system: RPMI-8226 leukemia
786-0 renal = test system: 786-0 renal
SF-268 CNS = test system: SF-268 CNS
K-562 leukemia = test system: K-562 leukemia
KM12 colon = test system: KM12 colon
ACHN renal = test system: ACHN renal
SK-MEL-2 melanoma = test system: SK-MEL-2 melanoma
OVCAR-4 ovarian = test system: OVCAR-4 ovarian
NCI-H226 lung = test system: NCI-H226 lung
U251 CNS = test system: U251 CNS
HOP-62 NSCLC = test system: HOP-62 NSCLC
UO-31 renal = test system: UO-31 renal
EKVX NSCLC = test system: EKVX NSCLC
M19-MEL melanoma = test system: M19-MEL melanoma
OVCAR-5 ovarian = test system: OVCAR-5 ovarian
TK-10 renal = test system: TK-10 renal
M14 melanoma = test system: M14 melanoma
SN12C renal = test system: SN12C renal
HCT-15 colon = test system: HCT-15 colon
SNB-78 CNS = test system: SNB-78 CNS
IGROV1 ovarian = test system: IGROV1 ovarian
NCI-H460 lung = test system: NCI-H460 lung
DMS 114 small cell lung = test system: DMS 114 small cell lung
HT29 colon = test system: HT29 colon
CAKI-1 renal = test system: CAKI-1 renal
COLO 205 colon = test system: COLO 205 colon
SF-539 CNS = test system: SF-539 CNS
OVCAR-3 ovarian = test system: OVCAR-3 ovarian
SW-620 colon = test system: SW-620 colon
OVCAR-8 ovarian = test system: OVCAR-8 ovarian
HCC-2998 colon = test system: HCC-2998 colon
UACC-257 melanoma = test system: UACC-257 melanoma
HOP-18 NSCLC = test system: HOP-18 NSCLC
SK-MEL-5 melanoma = test system: SK-MEL-5 melanoma
RXF 393 renal = test system: RXF 393 renal
DLD-1 colon = test system: DLD-1 colon
UACC-62 melanoma = test system: UACC-62 melanoma
KM20L2 colon = test system: KM20L2 colon
MALME-3M melanoma = test system: MALME-3M melanoma
MOLT-4 leukemia = test system: MOLT-4 leukemia
DMS 273 small cell lung = test system: DMS 273 small cell lung
SK-OV-3 ovarian = test system: SK-OV-3 ovarian
NCI-H522 lung = test system: NCI-H522 lung
LXFL 529 NSCLC = test system: LXFL 529 NSCLC
A498 renal = test system: A498 renal
HCT-116 colon = test system: HCT-116 colon
HL-60(TB) leukemia = test system: HL-60(TB) leukemia
LOX IMVI melanoma = test system: LOX IMVI melanoma
HOP-92 NSCLC = test system: HOP-92 NSCLC
SK-MEL-28 melanoma = test system: SK-MEL-28 melanoma
SR leukemia = test system: SR leukemia

## Cn1c(=O)nc2n(-c3cc(Cl)ccc3Cl)c3ccccc3nc-2c1=O
CCRF-CEM leukemia
  TGI: 21.3 µM
SNB-75 CNS
  TGI: 24.6 µM
XF 498 CNS
  TGI: 18.9 µM
NCI-H23 lung
  TGI: 4.06 µM
SNB-19 CNS
  TGI: 13.3 µM
SF-295 CNS
  TGI: 21.2 µM
A549 NSCLC
  TGI: 21.9 µM
RPMI-8226 leukemia
  TGI: 33.7 µM
786-0 renal
  TGI: 34.6 µM
SF-268 CNS
  TGI: 30.7 µM
K-562 leukemia
  TGI: > 100 µM
KM12 colon
  TGI: 20.1 µM
ACHN renal
  TGI: 13.6 µM
SK-MEL-2 melanoma
  TGI: 18.1 µM
OVCAR-4 ovarian
  TGI: 17.8 µM
NCI-H226 lung
  TGI: 22 µM
U251 CNS
  TGI: 20.4 µM
HOP-62 NSCLC
  TGI: 46.4 µM
UO-31 renal
  TGI: 26.4 µM
EKVX NSCLC
  TGI: 13 µM
M19-MEL melanoma
  TGI: 2.85 µM
OVCAR-5 ovarian
  TGI: 25.7 µM
TK-10 renal
  TGI: 30.4 µM
M14 melanoma
  TGI: 15.2 µM
SN12C renal
  TGI: 16.7 µM
HCT-15 colon
  TGI: 15.4 µM
SNB-78 CNS
  TGI: 31.6 µM
IGROV1 ovarian
  TGI: 29.7 µM
NCI-H460 lung
  TGI: 13.4 µM
DMS 114 small cell lung
  TGI: 4.92 µM
HT29 colon
  TGI: 5.47 µM
CAKI-1 renal
  TGI: 27.8 µM
COLO 205 colon
  TGI: 6.43 µM
SF-539 CNS
  TGI: 19.5 µM
OVCAR-3 ovarian
  TGI: 9.92 µM
SW-620 colon
  TGI: 6.86 µM
OVCAR-8 ovarian
  TGI: 14.4 µM
HCC-2998 colon
  TGI: 9.32 µM
UACC-257 melanoma
  TGI: 5.2 µM
HOP-18 NSCLC
  TGI: 25.3 µM
SK-MEL-5 melanoma
  TGI: 4.55 µM
RXF 393 renal
  TGI: 34.1 µM
DLD-1 colon
  TGI: 16.6 µM
UACC-62 melanoma
  TGI: 3.38 µM
KM20L2 colon
  TGI: 7.9 µM
MALME-3M melanoma
  TGI: 12.2 µM
MOLT-4 leukemia
  TGI: 28.6 µM
DMS 273 small cell lung
  TGI: 16.2 µM
SK-OV-3 ovarian
  TGI: 91.9 µM
NCI-H522 lung
  TGI: 18.8 µM
LXFL 529 NSCLC
  TGI: 28.3 µM
A498 renal
  TGI: 35.7 µM
HCT-116 colon
  TGI: 16.2 µM

## O=C1C(Cl)C(c2cc(Br)ccc2O)N1n1cnc2ccccc2c1=O (stereo unspecified)
CCRF-CEM leukemia
  TGI: > 100 µM
SNB-75 CNS
  TGI: 71.4 µM
XF 498 CNS
  TGI: > 100 µM
NCI-H23 lung
  TGI: > 71 µM
SNB-19 CNS
  TGI: > 62.9 µM
HL-60(TB) leukemia
  TGI: 16.4 µM
SF-295 CNS
  TGI: > 100 µM
A549 NSCLC
  TGI: > 100 µM
RPMI-8226 leukemia
  TGI: 43.7 µM
786-0 renal
  TGI: > 100 µM
SF-268 CNS
  TGI: > 55 µM
K-562 leukemia
  TGI: > 47.3 µM
KM12 colon
  TGI: > 100 µM
ACHN renal
  TGI: > 95.2 µM
SK-MEL-2 melanoma
  TGI: > 100 µM
OVCAR-4 ovarian
  TGI: > 82.7 µM
NCI-H226 lung
  TGI: 39.1 µM
U251 CNS
  TGI: > 100 µM
HOP-62 NSCLC
  TGI: > 100 µM
UO-31 renal
  TGI: > 56.3 µM
EKVX NSCLC
  TGI: 27.8 µM
M19-MEL melanoma
  TGI: 35.1 µM
OVCAR-5 ovarian
  TGI: > 100 µM
LOX IMVI melanoma
  TGI: > 100 µM
TK-10 renal
  TGI: > 100 µM
HOP-92 NSCLC
  TGI: 71.1 µM
M14 melanoma
  TGI: 27.6 µM
SN12C renal
  TGI: > 100 µM
HCT-15 colon
  TGI: > 100 µM
SNB-78 CNS
  TGI: > 93.9 µM
IGROV1 ovarian
  TGI: > 92.7 µM
NCI-H460 lung
  TGI: 60.5 µM
DMS 114 small cell lung
  TGI: 28.2 µM
HT29 colon
  TGI: > 100 µM
CAKI-1 renal
  TGI: > 94.3 µM
COLO 205 colon
  TGI: > 100 µM
SF-539 CNS
  TGI: > 100 µM
OVCAR-3 ovarian
  TGI: > 82.1 µM
SW-620 colon
  TGI: > 100 µM
OVCAR-8 ovarian
  TGI: > 100 µM
HCC-2998 colon
  TGI: 65.9 µM
UACC-257 melanoma
  TGI: 49.1 µM
HOP-18 NSCLC
  TGI: 45.5 µM
SK-MEL-5 melanoma
  TGI: > 86.8 µM
RXF 393 renal
  TGI: > 100 µM
DLD-1 colon
  TGI: > 100 µM
SK-MEL-28 melanoma
  TGI: > 78.2 µM
UACC-62 melanoma
  TGI: > 68 µM
KM20L2 colon
  TGI: > 100 µM
MALME-3M melanoma
  TGI: 70.1 µM
MOLT-4 leukemia
  TGI: 29 µM
DMS 273 small cell lung
  TGI: > 73.2 µM
SK-OV-3 ovarian
  TGI: > 100 µM
NCI-H522 lung
  TGI: > 51.5 µM
LXFL 529 NSCLC
  TGI: > 100 µM
A498 renal
  TGI: > 100 µM
SR leukemia
  TGI: > 36.9 µM
HCT-116 colon
  TGI: 33.3 µM
